Reference: ChEMBL document CHEMBL5291721, “A preclinical secondary pharmacology resource illuminates target-adverse drug reaction associations of marketed drugs” (Nat Commun, 2023)

Columns and labels:
[1] = target: Voltage-gated inwardly rectifying potassium channel KCNH2 (Homo sapiens, UniProt Q12809); type: functional
Acetylcholinesterase = Acetylcholinesterase (Homo sapiens, UniProt P22303); type: functional
[2] = target: T1, Alpha-1A adrenergic receptor (Homo sapiens, UniProt P35348); type: functional, cell-based
T1 sequence (P35348 whole entry): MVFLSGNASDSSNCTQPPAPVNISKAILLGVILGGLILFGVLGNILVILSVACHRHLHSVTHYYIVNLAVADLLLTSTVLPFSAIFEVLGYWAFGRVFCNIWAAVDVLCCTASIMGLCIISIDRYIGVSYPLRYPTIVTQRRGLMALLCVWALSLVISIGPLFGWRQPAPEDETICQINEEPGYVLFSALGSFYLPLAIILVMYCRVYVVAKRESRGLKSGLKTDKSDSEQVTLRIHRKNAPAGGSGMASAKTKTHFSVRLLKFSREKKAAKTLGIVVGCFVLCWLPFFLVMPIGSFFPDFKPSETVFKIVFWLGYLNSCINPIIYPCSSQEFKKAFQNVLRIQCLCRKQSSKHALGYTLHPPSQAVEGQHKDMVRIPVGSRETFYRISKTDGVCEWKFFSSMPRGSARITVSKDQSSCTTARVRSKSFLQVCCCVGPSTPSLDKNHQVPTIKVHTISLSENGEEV

[3] = target: T2, Alpha-2A adrenergic receptor (Homo sapiens, UniProt P08913)
T2 sequence (P08913 whole entry): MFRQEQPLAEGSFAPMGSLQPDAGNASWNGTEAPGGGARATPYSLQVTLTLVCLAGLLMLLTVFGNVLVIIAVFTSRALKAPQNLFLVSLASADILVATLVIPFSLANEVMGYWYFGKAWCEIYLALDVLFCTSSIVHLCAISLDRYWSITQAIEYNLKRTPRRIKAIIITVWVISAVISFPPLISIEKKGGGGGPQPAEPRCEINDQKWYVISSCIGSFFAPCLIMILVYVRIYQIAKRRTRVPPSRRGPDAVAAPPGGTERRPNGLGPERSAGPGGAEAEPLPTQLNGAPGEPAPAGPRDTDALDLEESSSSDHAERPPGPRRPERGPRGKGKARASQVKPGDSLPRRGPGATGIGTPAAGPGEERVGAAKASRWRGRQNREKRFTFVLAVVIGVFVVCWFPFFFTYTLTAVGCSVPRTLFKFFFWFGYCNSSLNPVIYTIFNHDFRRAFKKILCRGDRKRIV

D(1A) dopamine receptor = D(1A) dopamine receptor (Homo sapiens, UniProt P21728)
D(3) dopamine receptor = D(3) dopamine receptor (Homo sapiens, UniProt P35462)
Prothrombin = Prothrombin (Homo sapiens, UniProt P00734); type: functional
[4] = target: T3, 5-hydroxytryptamine receptor 1A (Homo sapiens, UniProt P08908)
T3 sequence (P08908 whole entry): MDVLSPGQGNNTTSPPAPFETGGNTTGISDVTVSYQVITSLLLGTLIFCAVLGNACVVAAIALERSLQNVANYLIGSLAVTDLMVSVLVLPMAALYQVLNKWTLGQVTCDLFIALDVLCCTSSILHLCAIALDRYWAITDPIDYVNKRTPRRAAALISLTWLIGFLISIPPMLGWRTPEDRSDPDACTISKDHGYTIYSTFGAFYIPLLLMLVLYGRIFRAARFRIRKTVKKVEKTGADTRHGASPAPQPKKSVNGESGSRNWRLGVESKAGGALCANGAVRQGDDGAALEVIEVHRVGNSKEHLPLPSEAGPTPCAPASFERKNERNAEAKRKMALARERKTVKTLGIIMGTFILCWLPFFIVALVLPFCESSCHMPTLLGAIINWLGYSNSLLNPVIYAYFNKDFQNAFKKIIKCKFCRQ

[5] = target: 5-hydroxytryptamine receptor 2B (Homo sapiens, UniProt P41595); type: functional, cell-based
[6] = target: T4, Amine oxidase [flavin-containing] A (Homo sapiens, UniProt P21397); type: functional
T4 sequence (P21397 whole entry): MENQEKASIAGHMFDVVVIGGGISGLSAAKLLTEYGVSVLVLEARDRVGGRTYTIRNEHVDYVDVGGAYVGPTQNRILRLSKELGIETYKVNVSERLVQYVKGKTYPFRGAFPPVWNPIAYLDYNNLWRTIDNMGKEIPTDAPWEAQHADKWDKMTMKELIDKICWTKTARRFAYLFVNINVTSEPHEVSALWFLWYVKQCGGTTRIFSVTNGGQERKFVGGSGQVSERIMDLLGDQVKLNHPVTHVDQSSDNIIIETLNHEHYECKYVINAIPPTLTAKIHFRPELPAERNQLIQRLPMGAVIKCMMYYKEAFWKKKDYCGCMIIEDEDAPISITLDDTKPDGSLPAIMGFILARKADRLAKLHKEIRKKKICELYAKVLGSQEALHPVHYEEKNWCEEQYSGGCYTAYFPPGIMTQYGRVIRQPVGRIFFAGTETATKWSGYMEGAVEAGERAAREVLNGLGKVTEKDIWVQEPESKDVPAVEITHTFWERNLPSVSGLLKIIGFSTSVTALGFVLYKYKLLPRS

[7] = target: cGMP-inhibited 3',5'-cyclic phosphodiesterase 3A (Homo sapiens, UniProt Q14432); type: functional
[8] = target: 3',5'-cyclic-AMP phosphodiesterase 4A (Homo sapiens, UniProt P27815); type: functional
[9] = target: Sodium-dependent noradrenaline transporter (Homo sapiens, UniProt P23975)
Thromboxane A2 receptor = target: T5, Thromboxane A2 receptor (Homo sapiens, UniProt P21731); type: functional, cell-based
T5 sequence (P21731 whole entry): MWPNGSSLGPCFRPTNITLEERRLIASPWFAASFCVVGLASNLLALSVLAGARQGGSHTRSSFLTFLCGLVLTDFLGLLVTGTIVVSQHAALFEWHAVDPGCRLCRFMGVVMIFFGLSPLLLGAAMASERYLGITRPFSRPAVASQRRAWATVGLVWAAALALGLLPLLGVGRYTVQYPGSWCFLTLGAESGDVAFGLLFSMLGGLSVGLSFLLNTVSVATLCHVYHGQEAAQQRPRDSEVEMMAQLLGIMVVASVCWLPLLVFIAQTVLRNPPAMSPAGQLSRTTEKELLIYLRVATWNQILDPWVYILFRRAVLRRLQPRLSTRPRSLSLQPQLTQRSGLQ

[10] = target: T6, Prostaglandin G/H synthase 1 (Homo sapiens, UniProt P23219); type: functional
[11] = target: T6, Prostaglandin G/H synthase 1; type: functional; remark: listed apart in the source
Also: assay procedure not described here.

Voltage-gated inwardly rectifying potassium channel KCNH2, sequence (Q12809 whole entry): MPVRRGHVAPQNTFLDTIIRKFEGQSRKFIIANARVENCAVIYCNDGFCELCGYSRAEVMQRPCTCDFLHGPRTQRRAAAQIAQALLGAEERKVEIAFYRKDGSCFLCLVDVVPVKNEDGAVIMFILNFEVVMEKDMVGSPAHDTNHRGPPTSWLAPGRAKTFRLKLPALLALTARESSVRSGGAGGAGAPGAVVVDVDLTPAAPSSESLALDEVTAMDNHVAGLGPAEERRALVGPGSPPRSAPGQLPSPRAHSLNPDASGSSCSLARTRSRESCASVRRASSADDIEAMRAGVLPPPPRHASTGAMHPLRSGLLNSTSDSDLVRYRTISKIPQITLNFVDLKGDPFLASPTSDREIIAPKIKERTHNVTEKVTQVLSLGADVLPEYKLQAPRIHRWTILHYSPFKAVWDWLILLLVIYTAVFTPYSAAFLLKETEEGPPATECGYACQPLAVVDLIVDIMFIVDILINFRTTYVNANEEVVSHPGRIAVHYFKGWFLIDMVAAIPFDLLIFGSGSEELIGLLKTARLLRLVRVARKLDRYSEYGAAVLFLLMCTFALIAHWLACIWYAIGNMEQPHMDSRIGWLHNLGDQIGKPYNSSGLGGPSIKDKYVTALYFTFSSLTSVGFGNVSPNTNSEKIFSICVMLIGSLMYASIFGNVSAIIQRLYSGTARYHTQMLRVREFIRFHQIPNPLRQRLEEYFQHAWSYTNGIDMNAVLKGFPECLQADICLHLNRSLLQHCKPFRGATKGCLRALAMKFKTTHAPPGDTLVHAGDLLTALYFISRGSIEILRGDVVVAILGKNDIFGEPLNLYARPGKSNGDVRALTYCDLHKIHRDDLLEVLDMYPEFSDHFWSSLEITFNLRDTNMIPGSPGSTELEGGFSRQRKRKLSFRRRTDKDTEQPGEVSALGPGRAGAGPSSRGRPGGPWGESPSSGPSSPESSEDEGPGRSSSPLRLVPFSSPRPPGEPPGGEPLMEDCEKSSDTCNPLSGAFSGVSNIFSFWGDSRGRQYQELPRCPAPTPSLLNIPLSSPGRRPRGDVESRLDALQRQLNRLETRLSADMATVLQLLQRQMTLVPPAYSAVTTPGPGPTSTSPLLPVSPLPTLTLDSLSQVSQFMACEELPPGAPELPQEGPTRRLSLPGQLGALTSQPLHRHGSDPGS
Acetylcholinesterase, sequence (P22303 whole entry): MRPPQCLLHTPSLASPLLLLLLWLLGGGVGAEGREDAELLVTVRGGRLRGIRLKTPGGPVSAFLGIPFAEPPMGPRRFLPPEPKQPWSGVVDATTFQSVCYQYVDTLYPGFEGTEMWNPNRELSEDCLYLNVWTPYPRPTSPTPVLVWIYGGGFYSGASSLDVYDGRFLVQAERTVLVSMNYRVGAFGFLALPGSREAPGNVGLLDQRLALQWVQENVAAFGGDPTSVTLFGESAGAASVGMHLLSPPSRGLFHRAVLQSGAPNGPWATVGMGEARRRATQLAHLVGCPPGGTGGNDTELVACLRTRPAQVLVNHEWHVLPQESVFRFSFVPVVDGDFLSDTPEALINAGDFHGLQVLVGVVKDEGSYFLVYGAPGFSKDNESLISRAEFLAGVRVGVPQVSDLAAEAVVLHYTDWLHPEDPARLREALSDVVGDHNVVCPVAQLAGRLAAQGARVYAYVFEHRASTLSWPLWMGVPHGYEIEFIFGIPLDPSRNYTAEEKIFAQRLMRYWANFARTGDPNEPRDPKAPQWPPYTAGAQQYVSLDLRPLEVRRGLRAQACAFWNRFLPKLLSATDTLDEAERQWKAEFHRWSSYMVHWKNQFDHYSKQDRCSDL
3',5'-cyclic-AMP phosphodiesterase 4A, sequence (P27815 whole entry): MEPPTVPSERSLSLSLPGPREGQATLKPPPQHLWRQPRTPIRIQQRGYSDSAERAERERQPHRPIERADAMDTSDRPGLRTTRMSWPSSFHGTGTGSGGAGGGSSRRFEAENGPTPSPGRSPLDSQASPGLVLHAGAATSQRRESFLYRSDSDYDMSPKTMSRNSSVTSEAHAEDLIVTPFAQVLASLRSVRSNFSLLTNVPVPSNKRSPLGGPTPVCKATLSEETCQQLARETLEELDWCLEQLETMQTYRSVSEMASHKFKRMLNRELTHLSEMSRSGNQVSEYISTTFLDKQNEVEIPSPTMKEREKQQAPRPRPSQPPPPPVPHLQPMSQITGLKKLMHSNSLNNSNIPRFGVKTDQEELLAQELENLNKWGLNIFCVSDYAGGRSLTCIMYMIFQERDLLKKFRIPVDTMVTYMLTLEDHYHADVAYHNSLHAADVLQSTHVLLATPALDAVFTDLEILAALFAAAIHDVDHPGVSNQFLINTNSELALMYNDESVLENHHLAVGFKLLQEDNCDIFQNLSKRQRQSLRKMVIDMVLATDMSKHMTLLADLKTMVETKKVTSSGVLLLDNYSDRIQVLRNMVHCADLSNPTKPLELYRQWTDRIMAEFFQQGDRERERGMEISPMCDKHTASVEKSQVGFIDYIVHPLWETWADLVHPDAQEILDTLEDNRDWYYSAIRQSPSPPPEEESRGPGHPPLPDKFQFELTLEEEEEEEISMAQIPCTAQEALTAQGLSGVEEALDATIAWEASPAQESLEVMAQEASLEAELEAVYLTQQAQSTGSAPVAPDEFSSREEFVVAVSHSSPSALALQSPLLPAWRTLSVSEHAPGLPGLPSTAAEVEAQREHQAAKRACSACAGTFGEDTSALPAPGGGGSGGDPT
5-hydroxytryptamine receptor 2B, sequence (P41595 whole entry): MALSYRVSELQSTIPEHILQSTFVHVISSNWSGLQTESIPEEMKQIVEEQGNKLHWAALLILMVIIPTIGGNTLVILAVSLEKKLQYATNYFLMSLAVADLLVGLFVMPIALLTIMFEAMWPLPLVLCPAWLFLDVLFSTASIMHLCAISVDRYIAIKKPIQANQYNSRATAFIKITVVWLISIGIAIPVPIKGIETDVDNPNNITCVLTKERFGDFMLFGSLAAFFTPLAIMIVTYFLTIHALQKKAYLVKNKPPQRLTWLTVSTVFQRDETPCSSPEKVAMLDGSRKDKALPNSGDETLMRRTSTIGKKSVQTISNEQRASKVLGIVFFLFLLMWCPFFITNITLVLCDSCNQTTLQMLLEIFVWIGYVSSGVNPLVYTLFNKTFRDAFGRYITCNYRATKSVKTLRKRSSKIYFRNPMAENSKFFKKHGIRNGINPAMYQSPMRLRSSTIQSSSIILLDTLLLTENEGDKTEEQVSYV
D(3) dopamine receptor, sequence (P35462 whole entry): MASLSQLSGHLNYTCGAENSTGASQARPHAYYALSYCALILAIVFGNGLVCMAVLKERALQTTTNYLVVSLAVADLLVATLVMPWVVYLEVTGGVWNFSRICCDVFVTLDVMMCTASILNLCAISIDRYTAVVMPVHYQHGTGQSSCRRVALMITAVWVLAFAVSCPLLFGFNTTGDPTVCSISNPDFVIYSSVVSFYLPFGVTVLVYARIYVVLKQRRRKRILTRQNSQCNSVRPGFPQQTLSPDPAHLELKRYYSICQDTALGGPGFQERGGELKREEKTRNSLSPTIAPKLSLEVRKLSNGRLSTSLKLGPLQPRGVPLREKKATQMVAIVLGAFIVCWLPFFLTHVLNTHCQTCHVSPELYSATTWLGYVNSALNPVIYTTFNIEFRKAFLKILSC
cGMP-inhibited 3',5'-cyclic phosphodiesterase 3A, sequence (Q14432 whole entry): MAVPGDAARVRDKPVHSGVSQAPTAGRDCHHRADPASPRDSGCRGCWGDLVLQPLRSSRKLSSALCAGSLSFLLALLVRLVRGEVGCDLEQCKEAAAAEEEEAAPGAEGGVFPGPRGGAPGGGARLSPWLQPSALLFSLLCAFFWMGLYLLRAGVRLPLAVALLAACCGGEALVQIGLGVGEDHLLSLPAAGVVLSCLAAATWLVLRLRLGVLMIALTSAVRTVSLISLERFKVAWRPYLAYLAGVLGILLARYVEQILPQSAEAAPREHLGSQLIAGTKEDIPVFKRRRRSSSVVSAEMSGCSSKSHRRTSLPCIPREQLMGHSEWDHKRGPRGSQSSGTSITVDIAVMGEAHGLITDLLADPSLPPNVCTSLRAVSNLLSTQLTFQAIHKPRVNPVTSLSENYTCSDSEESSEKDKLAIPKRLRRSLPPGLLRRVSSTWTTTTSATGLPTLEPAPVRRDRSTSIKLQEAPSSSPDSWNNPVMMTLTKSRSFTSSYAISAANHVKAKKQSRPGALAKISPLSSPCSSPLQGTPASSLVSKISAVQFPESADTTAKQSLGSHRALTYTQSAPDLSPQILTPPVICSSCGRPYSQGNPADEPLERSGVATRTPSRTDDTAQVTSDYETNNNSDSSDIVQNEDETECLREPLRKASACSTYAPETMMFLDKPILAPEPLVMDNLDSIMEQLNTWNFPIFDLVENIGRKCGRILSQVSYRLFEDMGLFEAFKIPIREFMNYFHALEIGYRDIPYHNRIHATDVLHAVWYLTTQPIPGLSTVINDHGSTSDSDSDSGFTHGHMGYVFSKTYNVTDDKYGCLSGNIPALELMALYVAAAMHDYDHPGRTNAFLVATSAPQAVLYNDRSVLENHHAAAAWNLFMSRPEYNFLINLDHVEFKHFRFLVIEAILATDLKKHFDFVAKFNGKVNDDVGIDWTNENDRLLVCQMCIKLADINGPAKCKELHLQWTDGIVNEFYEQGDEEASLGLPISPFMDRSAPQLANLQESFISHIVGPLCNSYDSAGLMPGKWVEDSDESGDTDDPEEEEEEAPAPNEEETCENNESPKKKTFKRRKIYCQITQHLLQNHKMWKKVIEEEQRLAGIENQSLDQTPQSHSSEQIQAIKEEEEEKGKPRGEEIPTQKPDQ

Structure (SMILES): CCOc1nc2cccc(C(=O)O)c2n1Cc1ccc(-c2ccccc2-c2nnn[nH]2)cc1
- AC50 [1]: > 30 µM

Structure (SMILES): CC(=O)Nc1ccc(CC(=O)O)cc1 [ACTARIT]
- AC50 [1]: > 30 µM

Structure (SMILES): CC(C(=O)O)c1ccc2oc(-c3ccc(Cl)cc3)nc2c1 (configuration not stated) [BENOXAPROFEN]
- AC50 [1]: > 30 µM

Structure (SMILES): Nc1c(CC(=O)O)cccc1C(=O)c1ccc(Br)cc1 [BROMFENAC]
- AC50 (Acetylcholinesterase): > 30 µM
- AC50 [2]: > 30 µM
- AC50 [3]: > 30 µM
- AC50 (D(1A) dopamine receptor): > 30 µM
- AC50 (D(3) dopamine receptor): > 30 µM
- AC50 (Prothrombin): > 30 µM
- AC50 [4]: > 30 µM
- AC50 [5]: > 30 µM
- AC50 [1]: > 30 µM
- AC50 [6]: > 30 µM
- AC50 [7]: > 30 µM
- AC50 [8]: > 30 µM
- AC50 [9]: > 30 µM
- AC50 (Thromboxane A2 receptor): > 30 µM

Structure (SMILES): CC1(C)S[C@@H]2[C@H](NC(=O)C(C(=O)O)c3ccccc3)C(=O)N2[C@H]1C(=O)O (some centres not stated) [CARBENICILLIN]
- AC50 [1]: > 30 µM

Structure (SMILES): Cc1nnc(SCC2=C(C(=O)O)N3C(=O)[C@@H](NC(=O)Cn4cnnn4)[C@H]3SC2)s1 [CEFAZOLIN]
- AC50 [1]: > 300 µM

Structure (SMILES): CC=CC1=C(C(=O)O)N2C(=O)[C@@H](NC(=O)[C@H](N)c3ccc(O)cc3)[C@H]2SC1 [CEFPROZIL]
- AC50 [1]: > 30 µM

Structure (SMILES): CC(C)(O/N=C(\C(=O)N[C@@H]1C(=O)N2C(C(=O)[O-])=C(C[n+]3ccccc3)CS[C@H]12)c1csc(N)n1)C(=O)O [CEFTAZIDIME]
- AC50 [1]: > 300 µM

Structure (SMILES): CC(C)NC(=N)NC(=N)Nc1ccc(Cl)c(Cl)c1 [CHLORPROGUANIL]
- AC50 (Acetylcholinesterase): > 30 µM
- AC50 [3]: 5.59 µM
- AC50 (D(1A) dopamine receptor): 1.77 µM
- AC50 (D(3) dopamine receptor): > 30 µM
- AC50 (Prothrombin): > 30 µM
- AC50 [4]: 3.82 µM
- AC50 [5]: > 30 µM
- AC50 [1]: 2.6 µM
- AC50 [6]: > 30 µM
- AC50 [7]: > 30 µM
- AC50 [8]: > 30 µM
- AC50 [10]: > 30 µM
- AC50 [11]: > 30 µM
- AC50 [9]: 2.89 µM
- AC50 (Thromboxane A2 receptor): > 10 µM

Structure (SMILES): CCCNC(=O)NS(=O)(=O)c1ccc(Cl)cc1 [CHLORPROPAMIDE]
- AC50 [1]: > 30 µM

Structure (SMILES): Clc1ccc(Cn2c(CN3CCCC3)nc3ccccc32)cc1 [CLEMIZOLE]
- AC50 [1]: 0.86 µM

Structure (SMILES): CCC(=O)O[C@]1(C(=O)CCl)[C@@H](C)C[C@H]2[C@@H]3CCC4=CC(=O)C=C[C@]4(C)[C@@]3(F)[C@@H](O)C[C@@]21C [CLOBETASOL PROPIONATE]
- AC50 [1]: > 30 µM

Structure (SMILES): O=C(O)Cc1ccccc1Nc1c(Cl)cccc1Cl [DICLOFENAC]
- AC50 (Acetylcholinesterase): > 3 µM
- AC50 [2]: > 3 µM
- AC50 [3]: > 3 µM
- AC50 (D(1A) dopamine receptor): > 3 µM
- AC50 (D(3) dopamine receptor): > 3 µM
- AC50 (Prothrombin): > 3 µM
- AC50 [4]: > 3 µM
- AC50 [5]: > 3 µM
- AC50 [1]: > 30 µM
- AC50 [6]: > 3 µM
- AC50 [7]: > 3 µM
- AC50 [8]: > 3 µM
- AC50 [9]: > 3 µM
- AC50 (Thromboxane A2 receptor): > 3 µM

Structure (SMILES): CN[C@@H]1[C@H](O[C@H]2[C@H](O[C@H]3[C@H](O)[C@@H](O)[C@H](NC(=N)N)[C@@H](O)[C@@H]3NC(=N)N)O[C@@H](C)[C@]2(O)CO)O[C@@H](CO)[C@H](O)[C@H]1O [DIHYDROSTREPTOMYCIN]
- AC50 (Acetylcholinesterase): > 30 µM
- AC50 [3]: > 30 µM
- AC50 (D(1A) dopamine receptor): > 30 µM
- AC50 (D(3) dopamine receptor): > 30 µM
- AC50 (Prothrombin): > 30 µM
- AC50 [4]: > 30 µM
- AC50 [5]: > 30 µM
- AC50 [6]: > 30 µM
- AC50 [7]: > 30 µM
- AC50 [8]: > 30 µM
- AC50 [10]: > 30 µM
- AC50 [11]: > 30 µM
- AC50 [9]: > 30 µM
- AC50 (Thromboxane A2 receptor): > 30 µM
